Values of other authors as cited in US11311556B2, “Topical dutasteride emulsions for treating endocrine therapy-induced alopecia” (Varsona Therapeutics, Inc., priority 2020, dated 2022).
Read-outs that look alike come from different tables or passages of the source.

Assays:
[1] = test system: DHT; conditions: oral, subjects with BPH
[2] = 416 men, 12 to 24 weeks

| SMILES | DHT blocked ([1]; 0.5 mg daily dose) | DHT blocked ([1]; 5 mg daily dose) | Hair count results versus oral finasteride [2] |
| --- | --- | --- | --- |
| C[C@]12C=CC(=O)N[C@@H]1CC[C@@H]1[C@@H]2CC[C@]2(C)[C@@H](C(=O)Nc3cc(C(F)(F)F)ccc3C(F)(F)F)CC[C@@H]12 [oral dutasteride, (5α, 17β)-N-{2,5 bis(trifluoromethyl)phenyl}-3-oxo-4-azaandrost-1-ene-17-carboxamide] | 94.7+/−3.3% | 98.4% | better hair count results than oral finasteride |
| CC(C)(C)NC(=O)[C@H]1CC[C@H]2[C@@H]3CC[C@H]4NC(=O)C=C[C@]4(C)[C@H]3CC[C@]12C [oral finasteride, finasteride] |  | 70.8+/−18.3% |  |
